Measured values from patent US20250302974A1, “LECTIN-DRUG CONJUGATES” (UNICHEM LABORATORIES LIMITED, priority 2021, published 2025).
Square brackets hold non-standard residues; d marks the D form. Peptide text beside a SMILES is read from it. * marks the point of attachment. Dolaproine = CO[C@@H]([C@@H]1CCCN1)[C@@H](C)C(=O)O; Dil = CC[C@H](C)[C@H](NC)[C@@H](CC(=O)O)OC; X1 = C[C@@H](N*)[C@@H](O)c1ccccc1; NMeV = CN[C@H](C(=O)O)C(C)C

Assays:
Type in all cases: cell-based
[1] = tested on: U251 MG cells; experiment: MTT cytotoxicity assay, U251 MG brain; conditions: Homo sapiens
Protocol: (§1) The Untreated cells were used as Control. […] Cells were incubated for 3 h at 37° C. The supernatant was aspirated.
(§2) The % Cytotoxicity was calculated using the formula: […]
(§3) Selectivity Index was calculated using the formula:
(§4) SI=IC50 in Normal cell/IC50 in cancer cell.

[2] = tested on: T-24 cells; experiment: Cytotoxicity (cell titer glo, 72 h) human urinary bladder cancer cell line T-24; conditions: T-24 cell line
Protocol: (§5) T-24 Cell line were cultured in McCoy's 5a Medium Modified supplemented with 10% FBS and the PA-1 Cell line was cultured in EMEM Media supplemented with 10% FBS. The assay was performed by plating 5,000 cells/well and incubated at 37° C. overnight. […] Each concentration was added in triplicate and media-only wells used as a control. After incubation for 72 h cell titer glow (Promega) reagent (50 μL) was added to each well and the plates shaken for 5 mins and the luminescence was recorded. Percent viability was determined by dividing luminescence of the treated well by the non-treated well and multiplying by 100. Data was analysed using non-linear regression with a logarithmic scale.
(§6) 5,000 cells/well were plated and incubated at 37° C. overnight. Conjugates/vehicle control dilutions were made in respective media and added to cells. Volume added: 50 uL to each well. […] Each concentration was analysed in triplicates. […] Cell titer glow reagent (volume: 50 uL) was added to each well, the plate was shaken for 5 mins and the luminescence was recorded. […] Percent viability was calculated by dividing the luminescence signal obtained for each treated well by the untreated well (media-only control) and multiplying by 100.

[3] = tested on: AGS cells; experiment: MTT cytotoxicity assay, AGS stomach; conditions: Homo sapiens, 48 h
Protocol: as §1, §2, §3, §4

[4] = tested on: PBMC; experiment: MTT cytotoxicity assay, PBMC normal; conditions: 48 h
Protocol: as §1, §2, §3, §4

[5] = tested on: T24 cells; experiment: MTT cytotoxicity assay, T24 bladder; conditions: Homo sapiens, T-24
Protocol: as §1, §2, §3, §4

[6] = tested on: KB cells; experiment: MTT cytotoxicity assay, KB cervix; conditions: Homo sapiens, 48 h
Protocol: as §1, §2, §3, §4

[7] = tested on: HT29 cells; experiment: MTT cytotoxicity assay, HT29 colon; conditions: Homo sapiens, HT-29
Protocol: as §1, §2, §3, §4

[8] = tested on: A549 cells; experiment: MTT cytotoxicity assay, A549 lungs; conditions: Homo sapiens
Protocol: as §1, §2, §3, §4

[9] = tested on: MDA-MB-231 cells; experiment: MTT cytotoxicity assay, MDA-MB-231 breast; conditions: Homo sapiens
Protocol: as §1, §2, §3, §4

[10] = tested on: MG-63 cells; experiment: MTT cytotoxicity assay, MG-63 bone; conditions: Homo sapiens, MG-63, 48 h
Protocol: as §1, §2, §3, §4

[11] = tested on: PA-1 cells; experiment: MTT cytotoxicity assay, PA-1 ovary; conditions: Homo sapiens
Protocol: as §1, §2, §3, §4

[12] = tested on: PA-1 cells; experiment: Cytotoxicity (cell titer glo, 72 h) ovarian cancer cell line PA-1; conditions: Homo sapiens, PA-1 cell line
Protocol: as §5, §6

[13] = tested on: ovarian cancer cell line (PA-1); experiment: Cytotoxicity assay, cell titer glow luminescence, 72 h; conditions: 72 h
Protocol: as §5
(§7) 5,000 cells/well were plated and incubated at 37° C. overnight. Conjugates/vehicle control dilutions were made in respective media and added to cells. Volume added: 50 uL to each well. Starting treatment concentration was 1 uM for Conjugate of formula 16 and 18, and control SEQ ID NO: 5 alone and 10% for vehicle control (1×PBS with 20% DMA) and then diluted 10-fold down for a total of 11 treatment dilutions. Each concentration was analysed in triplicates. Media-only wells was used as a control to calculate percent viability. Cell titer glow reagent (volume: 50 uL) was added to each well, the plate was shaken for 5 mins and the luminescence was recorded. Drug Treatment Time: 72 hours. Percent viability was calculated by dividing the luminescence signal obtained for each treated well by the untreated well (media-only control) and multiplying by 100.

[14] = tested on: human urinary bladder cancer cell line (T-24); experiment: as above; conditions: 72 h
Protocol: as §5, §7

[15] = tested on: PANC-1 cells; experiment: MTT cytotoxicity assay, PANC-1 pancreatic; conditions: Homo sapiens
Protocol: as §1, §2, §3, §4

[16] = 0.0001 μm, read-out: Percent cytotoxicity wrt control
[17] = 0.001 μm, read-out: Percent cytotoxicity wrt control
[18] = 0.01 μm, read-out: Percent cytotoxicity wrt control
[19] = 0.1 μm, read-out: Percent cytotoxicity wrt control
[20] = 1 μm, read-out: Percent cytotoxicity wrt control
[21] = 10 μm, read-out: Percent cytotoxicity wrt control

## CC[C@H](C)[C@@H]([C@@H](CC(=O)N1CCC[C@H]1[C@H](OC)[C@@H](C)C(=O)N[C@H](C)[C@@H](O)c1ccccc1)OC)N(C)C(=O)[C@@H](NC(=O)[C@@H](NC)C(C)C)C(C)C [MMAE, monomethyl auristatin E] (H-[NMeV]V[Dil][Dolaproine]-X1)
[1]; U-251, 0.0001 μm, 48 h, read-out: Percent cytotoxicity wrt control
  cytotoxicity at 0.0001 µM: 77.8%
[1]; U-251, 0.001 μm, 48 h, read-out: Percent cytotoxicity wrt control
  cytotoxicity at 0.001 µM: 52.5%
[1]; U-251, 0.01 μm, 48 h, read-out: Percent cytotoxicity wrt control
  cytotoxicity at 0.01 µM: 58.6%
[1]; U-251, 0.1 μm, 48 h, read-out: Percent cytotoxicity wrt control
  cytotoxicity at 0.1 µM: 63.1%
[1]; U-251, 1 μm, 48 h, read-out: Percent cytotoxicity wrt control
  cytotoxicity at 1 µM: 64.7%
[1]; U-251, 10 μm, 48 h, read-out: Percent cytotoxicity wrt control
  cytotoxicity at 10 µM: 71%
[1]; U-251, 48 h
  IC50: 0.2 nM
[2]
  IC50: 0.24 nM
[3]; [16]
  cytotoxicity at 0.0001 µM: 30.9%
[3]; [17]
  cytotoxicity at 0.001 µM: 31.7%
[3]; [18]
  cytotoxicity at 0.01 µM: 32.6%
[3]; [19]
  cytotoxicity at 0.1 µM: 48.2%
[3]; [20]
  cytotoxicity at 1 µM: 48.4%
[3]; [21]
  cytotoxicity at 10 µM: 54.4%
[3]
  IC50: 1540 nM
[4]; PBMC (normal)
  IC50: > 10000 nM
[4]; PBMC, 0.0001 μm, read-out: Percent cytotoxicity wrt control
  cytotoxicity at 0.0001 µM: -2.7%
[5]; T24, 0.0001 μm, 48 h, read-out: Percent cytotoxicity wrt control
  cytotoxicity at 0.0001 µM: 51.8%
[5]; T24, 0.001 μm, 48 h, read-out: Percent cytotoxicity wrt control
  cytotoxicity at 0.001 µM: 51.1%
[5]; T24, 0.01 μm, 48 h, read-out: Percent cytotoxicity wrt control
  cytotoxicity at 0.01 µM: 46.1%
[5]; T24, 0.1 μm, 48 h, read-out: Percent cytotoxicity wrt control
  cytotoxicity at 0.1 µM: 44.4%
[5]; T24, 1 μm, 48 h, read-out: Percent cytotoxicity wrt control
  cytotoxicity at 1 µM: 44.4%
[5]; T24, 10 μm, 48 h, read-out: Percent cytotoxicity wrt control
  cytotoxicity at 10 µM: 53.2%
[5]; T24, 48 h
  IC50: 0.01 nM
[6]; [16]
  cytotoxicity at 0.0001 µM: 90.5%
[6]; [17]
  cytotoxicity at 0.001 µM: 95.8%
[6]; [18]
  cytotoxicity at 0.01 µM: 96.1%
[6]; [19]
  cytotoxicity at 0.1 µM: 96.3%
[6]; [20]
  cytotoxicity at 1 µM: 96.2%
[6]; [21]
  cytotoxicity at 10 µM: 96.3%
[6]
  IC50: 0.1 nM
[7]; HT29, 0.0001 μm, 48 h, read-out: Percent cytotoxicity wrt control
  cytotoxicity at 0.0001 µM: 44.1%
[7]; HT29, 0.001 μm, 48 h, read-out: Percent cytotoxicity wrt control
  cytotoxicity at 0.001 µM: 44.6%
[7]; HT29, 0.01 μm, 48 h, read-out: Percent cytotoxicity wrt control
  cytotoxicity at 0.01 µM: 50.6%
[7]; HT29, 0.1 μm, 48 h, read-out: Percent cytotoxicity wrt control
  cytotoxicity at 0.1 µM: 50.4%
[7]; HT29, 1 μm, 48 h, read-out: Percent cytotoxicity wrt control
  cytotoxicity at 1 µM: 51.9%
[7]; HT29, 10 μm, 48 h, read-out: Percent cytotoxicity wrt control
  cytotoxicity at 10 µM: 55.9%
[7]; HT29, 48 h
  IC50: 50 nM
[8]; A549, 48 h
  IC50: 10 nM
[8]; A549, 0.0001 μm, 48 h, read-out: Percent cytotoxicity wrt control
  cytotoxicity at 0.0001 µM: 27.9%
[8]; A549, 0.001 μm, 48 h, read-out: Percent cytotoxicity wrt control
  cytotoxicity at 0.001 µM: 39.3%
[8]; A549, 0.01 μm, 48 h, read-out: Percent cytotoxicity wrt control
  cytotoxicity at 0.01 µM: 43.5%
[8]; A549, 0.1 μm, 48 h, read-out: Percent cytotoxicity wrt control
  cytotoxicity at 0.1 µM: 58.8%
[8]; A549, 1 μm, 48 h, read-out: Percent cytotoxicity wrt control
  cytotoxicity at 1 µM: 83.6%
[8]; A549, 10 μm, 48 h, read-out: Percent cytotoxicity wrt control
  cytotoxicity at 10 µM: 75.8%
[9]; MDA-MB-231, 48 h
  IC50: > 10000 nM
[9]; MDA-MB-231, 0.0001 μm, 48 h, read-out: Percent cytotoxicity wrt control
  cytotoxicity at 0.0001 µM: 11.3%
[9]; MDA-MB-231, 0.001 μm, 48 h, read-out: Percent cytotoxicity wrt control
  cytotoxicity at 0.001 µM: 13.3%
[9]; MDA-MB-231, 0.01 μm, 48 h, read-out: Percent cytotoxicity wrt control
  cytotoxicity at 0.01 µM: 28.9%
[9]; MDA-MB-231, 0.1 μm, 48 h, read-out: Percent cytotoxicity wrt control
  cytotoxicity at 0.1 µM: 23.8%
[9]; MDA-MB-231, 1 μm, 48 h, read-out: Percent cytotoxicity wrt control
  cytotoxicity at 1 µM: 16.8%
[9]; MDA-MB-231, 10 μm, 48 h, read-out: Percent cytotoxicity wrt control
  cytotoxicity at 10 µM: 26.4%
[10]
  IC50: 0.1 nM
[11]; PA-1, 48 h
  IC50: 30.1 nM
[11]; PA-1, 0.0001 μm, 48 h, read-out: Percent cytotoxicity wrt control
  cytotoxicity at 0.0001 µM: 13.4%
[11]; PA-1, 0.001 μm, 48 h, read-out: Percent cytotoxicity wrt control
  cytotoxicity at 0.001 µM: 57.5%
[11]; PA-1, 0.01 μm, 48 h, read-out: Percent cytotoxicity wrt control
  cytotoxicity at 0.01 µM: 50%
[11]; PA-1, 0.1 μm, 48 h, read-out: Percent cytotoxicity wrt control
  cytotoxicity at 0.1 µM: 57.5%
[11]; PA-1, 1 μm, 48 h, read-out: Percent cytotoxicity wrt control
  cytotoxicity at 1 µM: 61.7%
[11]; PA-1, 10 μm, 48 h, read-out: Percent cytotoxicity wrt control
  cytotoxicity at 10 µM: 58.3%
[12]
  IC50: 3.23 nM
[13]
  IC50: 3.23 nM
[14]
  IC50: 0.24 nM
[15]; PANC-1, 48 h
  IC50: 1.5 nM
[15]; PANC-1, 0.0001 μm, 48 h, read-out: Percent cytotoxicity wrt control
  cytotoxicity at 0.0001 µM: 38.1%
[15]; PANC-1, 0.001 μm, 48 h, read-out: Percent cytotoxicity wrt control
  cytotoxicity at 0.001 µM: 41%
[15]; PANC-1, 0.01 μm, 48 h, read-out: Percent cytotoxicity wrt control
  cytotoxicity at 0.01 µM: 64.1%
[15]; PANC-1, 0.1 μm, 48 h, read-out: Percent cytotoxicity wrt control
  cytotoxicity at 0.1 µM: 67.7%
[15]; PANC-1, 1 μm, 48 h, read-out: Percent cytotoxicity wrt control
  cytotoxicity at 1 µM: 77.1%
[15]; PANC-1, 10 μm, 48 h, read-out: Percent cytotoxicity wrt control
  cytotoxicity at 10 µM: 69.7%
